Results on 7 compounds are retold here after patent publication US5225543A, “Receptors method for purification of G protein-linked” (priority 1991, dated 1993).

Entries after “also recorded” stand apart in the source; their conditions may differ. Where no end group is shown, it is not given here. The star is where a group is joined. Biotin = O=C1N[C@H]2[C@H](CS[C@H]2CCCCC(=O)*)N1; Ahx = NCCCCCC(=O)O

The test system of data set [1] is receptor:ligand complex (GH4 C1 membranes, [^125 I]Tyr11-S14). Kind of data set: Detergent solubilization of specifically bound [^125 I]Tyr11-S14 from GH4 C1 membranes and recovery of intact complex (FIGS. 2, 3). To be noted: [^125 I]Tyr11-S14, FIG. 2. On the procedure: (§1) To solubilize membranes, washed pellets after the binding step are resuspended free of visible particles by pipetting and vortexing in solubilization buffer+1/100 (vol/vol) of 100× 4Pase protease inhibitors+detergent at the desired concentration. After 1 hour on ice, the samples are centrifuged at 100,000×g for 30 minutes. The supernatants are removed and held on ice and the pellets are discarded.
(§2) Sephadex G-50 columns (8×130 mm) are equilibrated with solubilization buffer containing detergent at the concentration used to solubilize membranes and 1 mg/ml bovine serum albumin. 0.2-0.5 ml samples of solubilized membranes are applied to the columns and eluted at a flow rate of about 0.7 ml/minute. 0.18 ml samples are collected. Radioactivity is determined in a gamma counter as described under "Receptor Binding Methods". Void volumes of the columns are determined by the elution volume of blue dextran. Radioactivity eluting in the void volume (>50,000 MW) was considered bound to protein. […] The mixture is held on ice for 15 minutes. Then 3 ml of 0.1M sodium phosphate (pH 7.4) is added to a final part of 4 ml per sample and the samples are rapidly (1-3 seconds) filtered over Whatman GF/B glass fiber filters and washed with 4 ml of the phosphate buffer. […] Whatman GF/B glass fiber filters are soaked in 0.3% polyethyleneimine (PEI, Sigma) for 3 hours. 25-100 ul samples of solubilized membranes are placed in 12×75 mm polypropylene tubes. Then 4 ml of solubilization buffer (without detergent) is added per sample and the samples are immediately filtered through the GFB/PEI filters (1-3 seconds) and washed with 4 ml of solubilization buffer. […] 0.5 gm of Dextran T70 (Pharmacia) is dissolved in 1 liter of water and then 5 gm of activated charcoal (Norit A, alkaline; Fisher Scientific) is added. The suspension is stirred for 10 minutes at room temperature and then stored at 4° C. until use. To measure R:L complex, 4 parts by volume of charcoal/dextran suspension are added to 1 part by volume of solubilized membrane. The samples are mixed and held on ice for 2 minutes and then centrifuged for 2 minutes at 11,000×g in a Beckman microfuge. Free radioligand is adsorbed to charcoal/dextran and is discarded with the pellet.

A further data set concerns streptavidin. Kind of data set: Effect of detergent on binding of solubilized R:L complex to streptavidin (Table 2B). The note with it: for % of original R:L complex bound to SA: % R:L bound to SA × % solubilization of original R:L complex; for % of intact R:L nonbound to SA in 5 hours: streptavidin-agarose, charcoal/dextran assay. On the procedure: The final determination is whether the detergent interferes with binding of the receptor:[^125 I]BioS-28. […] R:L complex in the supernatants ("non-bound to SA") after this time is measured by the charcoal/dextran assay. The % of non-bound, intact R:L complex is calculated from the ratio (R:L non-bound to SA/original R:L in the 100,000×g supernatant). The % of intact R:L complex bound to SA is calculated by subtracting % non-bound R:L from 100%. Finally, % of original R:L bound to SA=% R:L bound to SA×% solubilization of original membrane-bound R:L complex.

The target of data set [2] is receptor:ligand complex (GH4 C1 membranes, [^125 I]BioS28) (Rattus norvegicus, UniProt P30680). Nature of the data set: Detergent solubilization of receptor:[^125 I]BioS28 complex, charcoal/dextran assay (Table 2A). The note with it: for Solubilization of specifically bound CPM (%): based on 14,013 cpm specifically bound [^125 I]BioS28 per sample; for Solubilized CPM in intact R:L complex (%): charcoal/dextran method; for solubilization and stabilization of receptor:ligand complex: [^125 I]BioS28, Table 2A. On the procedure:
as §1, §2
Membrane solubilization is conducted as already described; however, determination of the presence of the intact receptor:ligand complex in the 100,000×g supernatant is accomplished by charcoal/dextran assay ("Methods: Assay of Solubilized, 4.").

Data set [3] has as its target T1, SRIF receptor (GH4 C1 membranes) (Rattus norvegicus, UniProt P30680).
T1 construct: GH4 C1 rat pituitary tumor cells; endogenous in cells; host or cells: GH4 C1 rat pituitary tumor cells (isolated membranes)
Nature of the data set: Competitive radioligand binding vs [^125 I]Tyr11-S14 on GH4 C1 membranes (FIG. 4). To be noted: for IC50: vs [^125 I]Tyr11-S14, 20 ug GH4 C1 membrane protein, 100,000 cpm (FIG. 4B).
Description: Membrane Isolation--1-8 liter batches of cells at densities of 6-10×10^5 cells/ml are pelleted in conical bottom glass centrifuge bottles (600 or 800 ml; Bellco) at 1,000× g for 5 min. The supernatants are carefully poured off and the cells are resuspended in ice cold homogenization medium (1 mM Na-bicarbonate at pH 7.6, 1 mM EDTA and 1 mM EGTA) containing 0.7% (vol/vol) of the "100×4pase" protease inhibitor cocktail (see below). Twenty ml of homogenization medium is used for every liter of suspension culture. After 5 min. on ice, the hypotonically swollen cells are homogenized with 10 strokes of a tight fitting Dounce homogenizer (Kontes, type A pestle). The homogenate is centrifuged at 1,000× g for 10 min. and the supernatant is removed and kept on ice. The 1,000× g pellet containing residual intact cells, nuclei and DNA is washed by gently homogenizing with 4 strokes with a type B pestle in one half the original volume of homogenization medium and recentrifuging for 10 min. at 1,000× g. The final 1,000× g pellet consists mostly of DNA and is discarded. The 1,000× g supernatants are combined and centrifuged at 20,000× g for 30 min. The 20,000× g pellet is washed twice in 25 mM Tris (pH 7.4), with centrifugation for 25 min. at 20,000 2 g. Final membrane pellets are resuspended in 25 mM Tris buffer to concentrations of 4-10 mg membrane protein/ml. Then the 100× 4pase protease inhibitor cocktails are added to 1% of final volume and aliquots are frozen on dry ice. Membranes are stored at -90° C. until needed. Membrane protein is assayed with the Bradford dye binding assay (Bio-Rad).
Standard Binding Assays--Binding assays are done in a binding buffer containing 50 mM HEPES (pH 7.4), 0.5% BSA and 5 mM MgCl2. The standard assay for [^125 I]SRIF analog binding to GH4 CL membranes, done in 96 well microtiter plates (Dynatech Immulon II Removawell plates), is carried out as follows: 1. Radioligand is diluted in binding buffer+PMSF/Baci to the desired cpm per vol. of 50 μl and then 50 μl aliquots are added to the wells. For non-specific binding samples, 5 μl of 40 μM cold S14 is also added per well. […] Binding is initiated by adding 150 μl per well of membrane diluted to the desired concentration (10-30 ug membrane protein/well) in binding buffer+PMSF/Baci. Plates are then covered with Linbro mylar plate sealers (Flow Labs) and placed on a Dynatech Microshaker II and binding is allowed to proceed at room temperature for 1-2 hours. Binding is stopped by centrifuging the plate for 15 minutes at 2,000×g. The supernatants are dumped off and membrane pellets washed once by addition of 200 μl of ice cold binding buffer, brief shaking and recentrifugation. Finally the individual wells are placed in 12×75 mm tubes and counted in an LKB Gammamaster counter (78% efficiency). […]

receptor:ligand complex (GH4 C1 membranes, [^125 I]BioS28), sequence (P30680 whole entry, one chain of several): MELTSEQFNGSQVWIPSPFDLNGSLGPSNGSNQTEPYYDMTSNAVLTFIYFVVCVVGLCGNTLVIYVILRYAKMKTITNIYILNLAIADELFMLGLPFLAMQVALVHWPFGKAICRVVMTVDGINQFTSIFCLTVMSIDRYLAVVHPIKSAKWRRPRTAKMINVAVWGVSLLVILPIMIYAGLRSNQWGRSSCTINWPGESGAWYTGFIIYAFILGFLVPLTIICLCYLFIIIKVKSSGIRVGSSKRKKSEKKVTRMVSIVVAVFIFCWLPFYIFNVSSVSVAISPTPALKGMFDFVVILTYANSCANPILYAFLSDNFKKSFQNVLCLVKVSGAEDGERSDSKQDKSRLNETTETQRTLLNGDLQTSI
T1 sequence (P30680 whole entry): as the sequence (P30680 whole entry, one chain of several) above

As to `C[C@H](CCC(=O)NCCC[N+](C)(C)CCCS(=O)(=O)[O-])[C@H]1CC[C@H]2[C@@H]3[C@H](O)C[C@@H]4C[C@H](O)CC[C@]4(C)[C@H]3C[C@H](O)[C@]12C` [CHAPS], the “solubilization of receptor:ligand complex / bound radioligand” value in data set [1] is on record as “total solubilization of radioligand is relatively low; also recorded: did not solubilize well at all at any concentration tested”. Moreover, in the data set with streptavidin, the “% of intact R:L bound to SA (100% - A)” value is recorded as 56%, the “% of original R:L complex bound to SA” value was 7% and the “% of intact R:L nonbound to SA in 5 hours” value (from here on “% of intact R:L nonbound”) was determined as 44%. In data set [2], the “% Solubilization of original R:L in membranes (A × B)” value (“% Solubilization of original R:L” for short) amounted to 12%, the “Solubilization of specifically bound CPM (%)” value amounted to 38% and the “Solubilized CPM in intact R:L complex (%)” value (“Solubilized CPM … (%)” for short) was 32%.
Regarding `C[C@H](CCC(=O)O)[C@H]1CC[C@H]2[C@@H]3CC[C@@H]4C[C@H](O)CC[C@]4(C)[C@H]3C[C@H](O)[C@]12C` [Deoxycholate], in data set [1], the “solubilization of receptor:ligand complex / bound radioligand” value is listed as “superior solubilization”. Further, in the data set on streptavidin, the “% of intact R:L bound to SA (100% - A)” value was 89%, the “% of original R:L complex bound to SA” value came out at 29% and the “% of intact R:L nonbound” value was 11%. In addition, in data set [2], the “% Solubilization of original R:L” value was found to be 31%; the “solubilization and stabilization of receptor:ligand complex” value (“solubilization and stabilization” for short) is recorded as “satisfactory results”; the “Solubilization of specifically bound CPM (%)” value was determined as 93%; the “Solubilized CPM … (%)” value was 33%.
In the case of `C[C@@H]1CC[C@@]2(OC1)O[C@H]1[C@@H](O)[C@H]3[C@@H]4CC[C@H]5C[C@@H](O[C@@H]6O[C@H](CO)[C@H](O[C@@H]7O[C@H](CO)[C@@H](O)[C@H](O[C@@H]8OC[C@@H](O)[C@H](O)[C@H]8O)[C@H]7O[C@@H]7O[C@H](CO)[C@H](O)[C@H](O[C@@H]8O[C@H](CO)[C@@H](O)[C@H](O)[C@H]8O)[C@H]7O)[C@H](O)[C@H]6O)[C@H](O)C[C@]5(C)[C@H]4CC[C@]3(C)[C@H]1[C@@H]2C` [Digitonin], the “solubilization of receptor:ligand complex / bound radioligand” value in data set [1] was “less satisfactory but adequate levels of solubilization”. For the same compound, in the data set on streptavidin, the “% of intact R:L bound to SA (100% - A)” value came to 87%, the “% of original R:L complex bound to SA” value worked out at 24% and the “% of intact R:L nonbound” value amounted to 13%. In data set [2], the “% Solubilization of original R:L” value is recorded as 28%; the “solubilization and stabilization” value is “satisfactory results”; the “Solubilization of specifically bound CPM (%)” value is reported as 55%; the “Solubilized CPM … (%)” value was 50%.
Regarding Biotinyl-NH--SRIF14 [Bio-S14], the “potency relative to S14 in competitive binding assay” value in data set [3] (% the potency of S14, 40 ug membrane protein, 85,000 cpm (FIG. 4A)) is “about 1.5%”.
In turn, “Biotinyl-[NH--(CH2)5 --CO]2 --NH-(Tyr11)SRIF14 ({Biotin-Ahx-Ahx}-AGCKNFFWKTYTSC; ends and bridges not checked; UniProt P61278 103-116, looked up, variant F11Y) [Bio-12C-S14]” yielded an IC50 in data set [3] of 2 nM. This lies in the single-digit nanomolar range.
Still for that read-out and setting: with “Biotinyl-[NH--(CH2)5 --CO]--NH-(Tyr11)SRIF14 ({Biotin-Ahx}-AGCKNFFWKTYTSC; ends and bridges not checked; UniProt P61278 103-116, looked up, variant F11Y) [Bio-6C-S14]” the figure was 2 nM.
For Lysolecithin, the “solubilization of receptor:ligand complex / bound radioligand” value in data set [1] was “less satisfactory but adequate levels of solubilization”. Further, in the data set with streptavidin, the “% of intact R:L bound to SA (100% - A)” value was 36%, the “% of original R:L complex bound to SA” value was determined as 16% and the “% of intact R:L nonbound” value turned out to be 65%. Also, in data set [2], the “% Solubilization of original R:L” value amounted to 33%; the “solubilization and stabilization” value is recorded as “satisfactory results”; the “Solubilization of specifically bound CPM (%)” value stood at 73%; the “Solubilized CPM … (%)” value is given as 46%.
